Source: patent US11857535B2, “Methods of treating mutant lymphomas” (Kymera Therapeutics, Inc., priority 2020, dated 2024)

Assays:
[1] = system: MYD88-mutant and wild type DLBCL PDX models; conditions: MYD88 MT model LY0257 with mutation in Aiolos; cited from earlier work
IRAK4 = biological target: T1, IRAK4 (Homo sapiens, UniProt Q9NWZ3); test: IRAK4 MSD degradation in OCI-Ly10; format: cell-based; conditions: OCI-Ly10 cells, 24 hrs
T1 construct: endogenous in cells; host or cells: OCI-Ly10
T1 sequence (Q9NWZ3 1-460): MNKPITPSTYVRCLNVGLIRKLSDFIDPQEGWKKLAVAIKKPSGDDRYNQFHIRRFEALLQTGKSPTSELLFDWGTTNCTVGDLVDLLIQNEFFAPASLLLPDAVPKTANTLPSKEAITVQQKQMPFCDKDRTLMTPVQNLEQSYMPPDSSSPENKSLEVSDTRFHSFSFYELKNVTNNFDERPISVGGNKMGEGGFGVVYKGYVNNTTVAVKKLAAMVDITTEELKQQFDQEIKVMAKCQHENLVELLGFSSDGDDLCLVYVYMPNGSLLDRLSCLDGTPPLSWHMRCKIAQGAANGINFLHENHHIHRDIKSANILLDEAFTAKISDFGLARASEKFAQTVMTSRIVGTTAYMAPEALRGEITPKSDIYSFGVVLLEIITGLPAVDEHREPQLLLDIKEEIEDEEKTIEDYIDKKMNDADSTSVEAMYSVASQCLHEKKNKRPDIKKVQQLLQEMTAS
Procedure: Degradation of IRAK4 in OCI-Ly10 was quantitatively measured using Meso Scale Discovery technology. OCI-Ly10 cells were seeded in 96-well plates (Corning 3799) with a density of 300,000 cells per well in 100 μL fresh media. Compounds were then added to the assay plates with a final top concentration of 1 to 10 μM in a 1:3 dilution series with total of 8 doses. The assay plates were then incubated for 4 to 24 hours at 37° C. under 5% CO2. The assay plates were then centrifuged for 5 minutes and the cell pellets were treated with 100 μL/well RIPA lysis buffer (Boston BioProducts BP-115D) with proteinase inhibitors. To prepare MSD assay plates (Meso Scale Discovery Catalog number L15XA-3), the plates were coated with 2 μg/mL capture antibody (mouse Anti-IRAK4 antibody [2H9], ab119942) in PBS, at 40 μL/well. The plates were then incubated overnight at 4° C., washed 3 times with 150 μL/well TBST buffer (Cell Signaling Technology, Catalog number 9997S) and blocked with 150 μL/well blocking buffer (Meso Scale Discovery Catalog number R93BA-4). Cell lysates were then added to MSD assay plates and the plates were incubated at room temperature for 1 hour. The plates were then washed 3 times with 150 μL/well TBST buffer and […] primary detection antibody (rabbit Anti-IRAK4 antibody [Y279], from Abcam. Catalog number ab32511, 1 μg/mL). The assay plates were then incubated at room temperature for 1 hour, washed 3 times with 150 μL/well TBST buffer and 25 μL/well secondary detection antibody, SULFO-TAG anti-rabbit antibody were added (anti rabbit antibody from Meso Scale Discovery, Catalog number R32AB-1, 1 μg/mL). The assay plates were then incubated at room temperature for 1 hour, washed 3 times with 150 μL/well TBST buffer, and 150 μL/well MSD reading buffer (Meso Scale Discovery catalog number R92TC-2) was added. The plates were then analyzed by a MSD reader (Meso Scale Discovery, Model Quick Plex SQ 120). The data was then analyzed by software Prism 7.0 from GraphPad and the dose-depended IRAK4 degradation were fit using a three-parameter logistic equation to calculate DC50.

OCI-Ly10 = test: CTG cell viability assay - OCI-Ly10; format: cell-based; conditions: Homo sapiens, 96 h; OCI-Ly10, 4 days
Procedure: Compound-mediated viability effect on OCI-Ly10 or SUDHL-2 was quantitatively determined using the CellTiter-Glo® Luminescent Cell Viability Assay kit from Promega (Catalog number G7570) following manufacturer's recommended procedures. Briefly, OCI-Ly10 or SUDHL-2 cells were seeded into 384 well plates (Grenier Bio-One, Catalog number 781080) with a density of 10,000 cells per well. Compounds were then added to the assay plate with final top concentration of 10 μM and 1:3 dilution series with total of 9 doses. The final DMSO concentration was normalized to 0.2%. The assay plates were incubated at 37° C. for 4 days under 5% CO2. Then the assay plate was equilibrated at room temperature for 10 minutes. To determine cell viability, 30 μL CellTiter Glo reagent was added to each well and the assay plate was centrifuged at 1000 rpm for 30 second, incubated at room temperature for 10 min, and analyzed by detecting the luminescence using a multimode plate reader (EnVision 2105, PerkinElmer). The data was then analyzed by software Prism 7.0 from GraphPad and the dose response curves were fit using a three-parameter logistic equation to calculate IC50.

| SMILES | sensitivity of PDX model LY0257 [1] | DC50 (IRAK4) | IC50 (OCI-Ly10) |
| --- | --- | --- | --- |
| Nc1cccc2c1CN(C1CCC(=O)NC1=O)C2=O (centres unmarked) [lenalidomide] | insensitive |  |  |
| CC(C)(O)c1cc2nc([C@H]3CC[C@H](CN4CC5(CC(CCNc6cccc7c6C(=O)N([C@H]6CCC(=O)NC6=O)C7=O)C5)C4)CC3)sc2cc1NC(=O)c1cccc(C(F)(F)F)n1 (single isomer, unassigned) [Compound (S)-A] |  | < 50 nM | < 50 nM |
| CC(C)(O)c1cc2nc([C@H]3CC[C@H](CN4CC5(CC(CCNc6cccc7c6C(=O)N([C@@H]6CCC(=O)NC6=O)C7=O)C5)C4)CC3)sc2cc1NC(=O)c1cccc(C(F)(F)F)n1 (single isomer, unassigned) [Compound (R)-A] |  | < 50 nM | < 50 nM |
